In patent publication US8987249B2, “Substituted 2-Aza-bicyclo[2.2.1]heptane-3-carboxylic acid (benzyl-cyano-methyl)-amides inhibitors of Cathepsin C” (Boehringer Ingelheim International GmbH, priority 2013, dated 2015) one finds half-life and IC50 data, which are given here for 33 molecules.

SMILES strings stand for the structures.

Series [1] can be described thus: Determination of metabolic stability with human liver microsomes. The conditions noted are these: human, pooled human liver microsomes, pH 7.6.
Series [2] deals with recombinant human Cathepsin K (Homo sapiens (Human), UniProt P43235). As to the kind of experiment: Inhibition of human Cathepsin K. Type of series: biochemical. The following applies: substrate Z-Gly-Pro-Arg-AMC. In short, it runs like this: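 Fluorogenic Z-Gly-Pro-Arg-AMC cleavage, 60 min at room temperature, after a 10 min enzyme–compound preincubation (enzyme 2 ng/μL; compound 0.1 nM–100 μM; 1% DMSO). Buffer pH 5.5 with sodium acetate, EDTA and L-cysteine; procathepsin first activated 30 min at pH 3.5. E64 (1 μM) stop; IC50 derived from percent of vehicle signal minus background (Ex 360/Em 460 nm).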
Chain of recombinant human Cathepsin K (P43235 115-329): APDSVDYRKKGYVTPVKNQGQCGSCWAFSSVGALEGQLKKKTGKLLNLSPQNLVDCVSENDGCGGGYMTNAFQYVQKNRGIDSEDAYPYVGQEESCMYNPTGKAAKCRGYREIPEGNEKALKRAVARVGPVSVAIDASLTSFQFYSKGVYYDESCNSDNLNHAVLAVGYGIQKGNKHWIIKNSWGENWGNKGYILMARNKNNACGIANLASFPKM

Series [3] concerns the target recombinant human DPPI (Cathepsin C) (Homo sapiens (Human), UniProt P53634). As to the kind of experiment: Inhibition of human DPPI (Cathepsin C). Type of series: biochemical. The following applies: substrate Gly-Arg-AMC. In short, it runs like this:
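Fluorescence read after 30 min room-temperature turnover of 50 μM (final) substrate by recombinant human cathepsin C, pH 6.0 MES/NaCl/DTT/BSA buffer, quenched by Gly-Phe-DMK (1 μM final). Activity as percent of vehicle after background subtraction, used for IC50.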

Chain of recombinant human DPPI (Cathepsin C) (P53634 231-394): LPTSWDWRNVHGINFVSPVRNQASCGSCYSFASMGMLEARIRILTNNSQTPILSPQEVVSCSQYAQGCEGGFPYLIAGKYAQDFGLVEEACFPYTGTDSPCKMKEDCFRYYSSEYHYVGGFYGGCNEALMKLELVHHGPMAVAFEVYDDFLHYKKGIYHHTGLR
Chain of recombinant human DPPI (Cathepsin C) (P53634 395-463): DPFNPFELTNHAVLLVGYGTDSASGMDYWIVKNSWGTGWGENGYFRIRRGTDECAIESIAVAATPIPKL
Chain of recombinant human DPPI (Cathepsin C) (P53634 25-134): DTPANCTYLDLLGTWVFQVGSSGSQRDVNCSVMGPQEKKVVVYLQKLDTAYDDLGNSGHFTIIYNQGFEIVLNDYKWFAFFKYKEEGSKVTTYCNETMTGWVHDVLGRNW

In the case of `N#C[C@H](Cc1ccc(-n2cc(C(F)(F)F)cn2)cc1F)NC(=O)[C@H]1N[C@@H]2CC[C@H]1C2` [Example 285], the half-life at 1 μM in series [1] is > 2.17 h. In addition, the IC50 in series [2] was found to be 8700 nM.

As for `Cn1c(=O)c2cc(CC(C#N)NC(=O)[C@H]3N[C@@H]4CC[C@H]3C4)ccc2c2ccc(Cl)cc21` (stereo partly drawn) [Example 305, (1S,2S,4R)—N-[2-(3-chloro-5-methyl-6-oxo-phenanthridin-8-yl)-1-cyano-ethyl]-3-azabicyclo[2.2.1]heptane-2-carboxamide], the half-life at 1 μM in series [1] was 1.52 h. Besides, the IC50 in series [3] amounted to 6.9 nM.

Consider `Cn1ccc(-c2ccc(C[C@@H](C#N)NC(=O)[C@H]3N[C@@H]4CC[C@H]3C4)c(F)c2)cc1=O` [Example 255], for which the half-life at 1 μM in series [1] is > 2.17 h. The IC50 in series [3] came out at 10.9 nM.

Consider `CCN1CCN(c2ccc(C[C@@H](C#N)NC(=O)[C@H]3N[C@@H]4CC[C@H]3C4)c(F)c2)CC1` [Example 272], for which, in series [1], the half-life at 1 μM is > 2.17 h. In series [3], the half-inhibitory concentration (IC50) was found to be 6.8 nM.

As for `COCCn1cc(-c2ccc(CC(C#N)NC(=O)[C@H]3N[C@@H]4CC[C@H]3C4)c(F)c2)cn1` (stereo partly drawn) [Example 97], the half-life at 1 μM in series [1] is > 2.17 h. In addition, in series [2], the IC50 stood at 7900 nM.

Regarding `CC1CN(c2ccc(C[C@@H](C#N)NC(=O)[C@H]3N[C@@H]4CC[C@H]3C4)c(F)c2)C(C)CN1C` (stereo partly drawn) [Example 196], the half-life at 1 μM in series [1] was > 2.17 h. For the same molecule, in series [3], the IC50 was 15.1 nM.

Turning to `N#Cc1ccc2c(c1)[nH]c(=O)c1cc(CC(C#N)NC(=O)[C@H]3N[C@@H]4CC[C@H]3C4)c(F)cc12` (stereo partly drawn) [Example 292], the half-life at 1 μM in series [1] is 1.57 h. The IC50 in series [3] amounted to 0.9 nM.

`N#Cc1cc(F)c2[nH]c(=O)c3cc(CC(C#N)NC(=O)[C@H]4N[C@@H]5CC[C@H]4C5)ccc3c2c1` (stereo partly drawn) [Example 307]: in series [1], the half-life at 1 μM was > 2.17 h. For the same molecule, the half-maximal inhibitory concentration (IC50) in series [3] turned out to be 7.2 nM.

Turning to `N#CC(Cc1ccc2c(c1)c(=O)[nH]c1c(C(=O)NC3CC3)cccc12)NC(=O)[C@H]1N[C@@H]2CC[C@H]1C2` (stereo partly drawn) [Example 341], the half-life at 1 μM in series [1] was > 2.17 h. Moreover, the half-maximal inhibitory concentration (IC50) in series [3] turned out to be 7.6 nM.

For the molecule `CN1Cc2cc(-c3ccc(C[C@@H](C#N)NC(=O)[C@H]4N[C@@H]5CC[C@H]4C5)c(F)c3)ccc2S1(=O)=O` [Example 169], in series [1], the half-life at 1 μM was > 2.17 h. Further, the IC50 in series [2] was 5200 nM.

As for `N#CC(Cc1ccc2c(c1)c(=O)[nH]c1c(F)cc(F)cc12)NC(=O)[C@H]1N[C@@H]2CC[C@H]1C2` (stereo partly drawn) [Example 310], the half-life at 1 μM in series [1] was > 2.17 h. Moreover, the half-inhibitory concentration (IC50) in series [3] was found to be 9.4 nM.

Consider `N#C[C@H](Cc1ccc(OCCN2CCNCC2)cc1F)NC(=O)[C@H]1N[C@@H]2CC[C@H]1C2` [Example 189], for which the half-life at 1 μM in series [1] is > 2.17 h. Also, the IC50 in series [3] is 10.4 nM.

Regarding `N#C[C@H](Cc1ccc(N2CC3(CNC3)C2)cc1F)NC(=O)[C@H]1N[C@@H]2CC[C@H]1C2` [Example 327], in series [1], the half-life at 1 μM is > 2.17 h. In addition, the IC50 in series [3] stood at 3.4 nM.

Molecule `N#C[C@H](Cc1ccc(-c2cnc3cnccn23)cc1F)NC(=O)[C@H]1N[C@@H]2CC[C@H]1C2` [Example 194] had a half-life at 1 μM in series [1] of 1.42 h. In series [3], the 50% inhibitory concentration (IC50) worked out at 13.3 nM.

As to `N#CC(Cc1ccc2c(c1)c(=O)[nH]c1c(F)cc(C(N)=O)cc12)NC(=O)[C@H]1N[C@@H]2CC[C@H]1C2` (stereo partly drawn) [Example 291], in series [1], the half-life at 1 μM is > 2.17 h. Moreover, the IC50 in series [3] came out at 5.9 nM.

On to `N#C[C@H](Cc1ccc(-c2cnc3n2CCC3)cc1F)NC(=O)[C@H]1N[C@@H]2CC[C@H]1C2` [Example 221], for which the half-life at 1 μM in series [1] was > 2.17 h. For the same molecule, the IC50 in series [3] was found to be 3.7 nM.

Take `N#C[C@H](Cc1ccc([C@@H]2CCN3CCOC[C@H]3C2)cc1F)NC(=O)[C@H]1N[C@@H]2CC[C@H]1C2` [Example 283]: in series [1], the half-life at 1 μM was > 2.17 h. The 50% inhibitory concentration (IC50) in series [2] amounted to 3600 nM.

For the molecule `N#CC(Cc1ccc2c(c1)c(=O)[nH]c1ccc(N)cc12)NC(=O)[C@H]1N[C@@H]2CC[C@H]1C2` (stereo partly drawn) [Example 314], the half-life at 1 μM in series [1] is > 2.17 h. Further, in series [3], the IC50 is 14 nM.

Turning to `N#C[C@H](Cc1ccc(N2CCC3C(=O)NCCC3C2)cc1F)NC(=O)[C@H]1N[C@@H]2CC[C@H]1C2` (stereo partly drawn) [Example 248], the half-life at 1 μM in series [1] is > 2.17 h. Also, the 50% inhibitory concentration (IC50) in series [3] worked out at 18 nM.

Regarding `CS(=O)(=O)c1ccc2[nH]c(=O)c3cc(CC(C#N)NC(=O)[C@H]4N[C@@H]5CC[C@H]4C5)ccc3c2c1` (stereo partly drawn) [Example 313], the half-life at 1 μM in series [1] is > 2.17 h. For the same molecule, the concentration for half-maximal inhibition (IC50) in series [3] stood at 13.6 nM.

On to `COCCN1C(C)CN(c2ccc(C[C@@H](C#N)NC(=O)[C@H]3N[C@@H]4CC[C@H]3C4)c(F)c2)CC1C` (stereo partly drawn) [Example 191], for which the half-life at 1 μM in series [1] is 1.52 h. The IC50 in series [3] turned out to be 11.2 nM.

Regarding `CN1CCN(c2ccc(C[C@@H](C#N)NC(=O)[C@H]3N[C@@H]4CC[C@H]3C4)c(F)c2)C(=O)C1` [Example 125], the half-life at 1 μM in series [1] was > 2.17 h. Moreover, in series [3], the half-maximal inhibitory concentration (IC50) worked out at 206 nM.

Consider `N#C[C@H](Cc1ccc(-c2cnn(-c3ccccc3)c2)cc1F)NC(=O)[C@H]1N[C@@H]2CC[C@H]1C2` [Example 171], for which the half-life at 1 μM in series [1] amounted to 1.38 h. Also, the IC50 in series [3] stood at 5 nM.

`COCCN1CCN(c2ccc(C[C@@H](C#N)NC(=O)[C@H]3N[C@@H]4CC[C@H]3C4)c(F)c2)CC1C` (stereo partly drawn) [Example 178]: the half-life at 1 μM in series [1] is > 2.17 h. The 50% inhibitory concentration (IC50) in series [3] was found to be 7.4 nM.

For `N#C[C@H](Cc1ccc(N2CCN(C3CCOC3)CC2)cc1F)NC(=O)[C@H]1N[C@@H]2CC[C@H]1C2` (stereo partly drawn) [Example 331], in series [1], the half-life at 1 μM is > 2 h. In addition, the IC50 in series [2] was 1500 nM.

On to `CCNC(=O)c1ccc(-c2ccc(C[C@@H](C#N)NC(=O)[C@H]3N[C@@H]4CC[C@H]3C4)c(F)c2)cc1` [Example 184], for which the half-life at 1 μM in series [1] is > 2.17 h. Further, in series [3], the IC50 turned out to be 8.8 nM.

In series [1], `CN1CCN(C(=O)c2ccc(-c3ccc(C[C@@H](C#N)NC(=O)[C@H]4N[C@@H]5CC[C@H]4C5)c(F)c3)o2)CC1` [Example 289] displayed a half-life at 1 μM of 1.83 h. The IC50 in series [3] worked out at 2.5 nM.

On to `N#C[C@H](Cc1ccc(N2CCOCC2)cc1F)NC(=O)[C@H]1N[C@@H]2CC[C@H]1C2` [Example 205], for which the half-life at 1 μM in series [1] is > 2.17 h. Further, the IC50 in series [3] was 25.9 nM.

Consider `N#CC(Cc1ccc2c(c1)c(=O)[nH]c1ccccc12)NC(=O)[C@H]1N[C@@H]2CC[C@H]1C2` (stereo partly drawn) [Example 9, (1S,2S,4R)—N-[1-cyano-2-(6-oxo-5H-phenanthridin-8-yl)ethyl]-3-azabicyclo[2.2.1]heptane-2-carboxamide], for which the half-life at 1 μM in series [1] was > 2 h. Also, the IC50 in series [3] turned out to be 9.6 nM.

In the case of `CS(=O)(=O)c1cc(-c2ccc(C[C@@H](C#N)NC(=O)[C@H]3N[C@@H]4CC[C@H]3C4)c(F)c2F)ccc1C#N` [Example 183], in series [1], the half-life at 1 μM was > 2.17 h. The IC50 in series [3] was 8.8 nM.

Turning to `COCCn1cc(-c2ccc(C[C@@H](C#N)NC(=O)[C@H]3N[C@@H]4CC[C@H]3C4)c(F)c2)cn1` [Example 44], the half-life at 1 μM in series [1] was > 2.17 h. Further, in series [2], the IC50 amounted to 4000 nM.

For `N#C[C@H](Cc1ccc(-n2cccn2)cc1F)NC(=O)[C@H]1N[C@@H]2CC[C@H]1C2` [Example 180], the half-life at 1 μM in series [1] was > 2 h. The IC50 in series [3] amounted to 7.7 nM.

For the molecule `CNc1nc2cc(-c3ccc(C[C@@H](C#N)NC(=O)[C@H]4N[C@@H]5CC[C@H]4C5)c(F)c3)ccc2[nH]1` [Example 347], the half-life at 1 μM in series [1] was > 2.17 h. Also, the IC50 in series [3] stood at 8.5 nM.
